Active and inactive are the calls of the source. No cut-off for these calls is given here.
Legend:
NCI-H460 [1] = experiment: Cell cycle arrest in human NCI-H460 cells assessed as accumulation at G2 phase at 5 uM after 48 hrs by Rnase A/propidium iodide staining-based flow cytometry (reference value: 33.9%); assay type: functional
NCI-H460 [2] = experiment: Cell cycle arrest in human NCI-H460 cells assessed as accumulation at G2 phase at 8 uM after 12 hrs by Rnase A/propidium iodide staining-based flow cytometry (reference value: 33.9%); assay type: functional
NCI-H460 [3] = experiment: Induction of apoptosis in human NCI-H460 cells assessed as necrotic cells at 8 uM by Annexin V/propidium iodide staining-based flow cytometry; assay type: functional, cell-based; conditions: TDE = time-dependent effect
HUVEC = experiment: Cytotoxicity against HUVEC after 48 hrs by MTT assay; assay type: cell-based; conditions: Homo sapiens
NCI-H460 [4] = experiment: Induction of apoptosis in human NCI-H460 cells assessed as change in mitochondrial membrane potential at 8 uM by JC-1 staining-based fluorescence microscopy relative to control; assay type: functional, cell-based; conditions: TDE = time-dependent effect
NCI-H460 [5] = experiment: Induction of apoptosis in human NCI-H460 cells assessed as early apoptotic cells at 8 uM after 48 hrs by Annexin V/propidium iodide staining-based flow cytometry (reference value: 6.8%); assay type: functional
CNE = experiment: Cytotoxicity against human CNE cells after 48 hrs by MTT assay; assay type: functional, cell-based
NCI-H460 [6] = experiment: Induction of apoptosis in human NCI-H460 cells assessed as change in mitochondrial membrane potential after 24 hrs by JC-1 staining-based fluorescence microscopy relative to control; assay type: functional, cell-based
NCI-H460 [7] = experiment: Induction of apoptosis in human NCI-H460 cells assessed as increase in intracellular ROS generation at 5 to 20 uM after 24 hrs by DCFH-DA staining-based fluorescence microscopy; assay type: functional, cell-based
NCI-H460 [8] = experiment: Induction of apoptosis in human NCI-H460 cells assessed as upregulation of CAMK1 mRNA expression after 24 hrs by qRT-PCR analysis; assay type: functional, cell-based
NCI-H460 [9] = experiment: Cell cycle arrest in human NCI-H460 cells assessed as accumulation at G2 phase at 8 uM after 24 hrs by Rnase A/propidium iodide staining-based flow cytometry (reference value: 33.9%); assay type: functional
NCI-H460 [10] = experiment: Induction of apoptosis in human NCI-H460 cells assessed as caspase-9 activation after 24 hrs by qRT-PCR analysis; assay type: functional, cell-based
NCI-H460 [11] = experiment: Cytotoxicity against human NCI-H460 cells after 48 hrs by MTT assay; assay type: functional, cell-based; conditions: NCI-H460, 48 h
MGC-803 = experiment: Cytotoxicity against human MGC803 cells after 48 hrs by MTT assay; assay type: functional, cell-based; conditions: MGC-803, 48 h
NCI-H460 [12] = experiment: Induction of apoptosis in human NCI-H460 cells assessed as early apoptotic cells at 8 uM after 24 hrs by Annexin V/propidium iodide staining-based flow cytometry (reference value: 6.8%); assay type: functional
NCI-H460 [13] = experiment: Induction of apoptosis in human NCI-H460 cells assessed as late apoptotic cells at 8 uM by Annexin V/propidium iodide staining-based flow cytometry; assay type: functional, cell-based; conditions: TDE = time-dependent effect
NCI-H460 [14] = experiment: Induction of apoptosis in human NCI-H460 cells assessed as downregulation of Bcl-2 mRNA expression after 24 hrs by qRT-PCR analysis; assay type: functional, cell-based
NCI-H460 [15] = experiment: Cell cycle arrest in human NCI-H460 cells assessed as accumulation at S phase at 20 uM after 48 hrs by Rnase A/propidium iodide staining-based flow cytometry (reference value: 19.41%); assay type: functional
KB = experiment: Cytotoxicity against human KB cells after 48 hrs by MTT assay; assay type: functional, cell-based
NCI-H460 [16] = experiment: Induction of apoptosis in human NCI-H460 cells assessed as upregulation of AIF mRNA expression after 24 hrs by qRT-PCR analysis; assay type: functional, cell-based
NCI-H460 [17] = experiment: Induction of apoptosis in human NCI-H460 cells assessed as karyopyknosis and chromatin condensation at 5 to 20 uM after 24 hrs by Hoechst 33258 staining-based fluorescence microscopy relative to control; assay type: functional, cell-based
NCI-H460 [18] = experiment: Induction of apoptosis in human NCI-H460 cells assessed as change in mitochondrial membrane potential at 8 uM after 12 to 48 hrs by JC-1 staining-based fluorescence microscopy relative to control; assay type: functional, cell-based
NCI-H460 [19] = experiment: Induction of apoptosis in human NCI-H460 cells assessed as karyopyknosis and chromatin condensation at 8 uM by Hoechst 33258 staining-based fluorescence microscopy relative to control; assay type: functional, cell-based; conditions: TDE = time-dependent effect
NCI-H460 [20] = experiment: Cell cycle arrest in human NCI-H460 cells assessed as accumulation at S phase at 8 uM after 24 hrs by Rnase A/propidium iodide staining-based flow cytometry (reference value: 19.41%); assay type: functional
NCI-H460 [21] = experiment: Induction of apoptosis in human NCI-H460 cells assessed as necrotic cells at 10 uM after 24 hrs by Annexin V/propidium iodide staining-based flow cytometry (reference value: 6.9%); assay type: functional
NCI-H460 [22] = experiment: Induction of apoptosis in human NCI-H460 cells assessed as necrotic cells at 8 uM after 24 hrs by Annexin V/propidium iodide staining-based flow cytometry (reference value: 6.9%); assay type: functional
NCI-H460 [23] = experiment: Induction of apoptosis in human NCI-H460 cells assessed as upregulation of TP53 mRNA expression after 24 hrs by qRT-PCR analysis; assay type: functional, cell-based
NCI-H460 [24] = experiment: Induction of apoptosis in human NCI-H460 cells assessed as early apoptotic cells at 10 uM after 24 hrs by Annexin V/propidium iodide staining-based flow cytometry (reference value: 6.8%); assay type: functional
NCI-H460 [25] = experiment: Cell cycle arrest in human NCI-H460 cells assessed as accumulation at G2 phase at 20 uM after 48 hrs by Rnase A/propidium iodide staining-based flow cytometry (reference value: 33.9%); assay type: functional
NCI-H460 [26] = experiment: Induction of apoptosis in human NCI-H460 cells assessed as late apoptotic cells at 5 uM after 24 hrs by Annexin V/propidium iodide staining-based flow cytometry (reference value: 14.1%); assay type: functional
NCI-H460 [27] = experiment: Induction of apoptosis in human NCI-H460 cells assessed as early apoptotic cells after 24 hrs by Annexin V/propidium iodide staining-based flow cytometry; assay type: functional, cell-based
NCI-H460 [28] = experiment: Induction of apoptosis in human NCI-H460 cells assessed as early apoptotic cells at 8 uM after 12 hrs by Annexin V/propidium iodide staining-based flow cytometry (reference value: 6.8%); assay type: functional
NCI-H460 [29] = experiment: Cell cycle arrest in human NCI-H460 cells assessed as accumulation at G1 phase at 8 uM after 48 hrs by Rnase A/propidium iodide staining-based flow cytometry (reference value: 46.69%); assay type: functional
NCI-H460 [30] = experiment: Cell cycle arrest in human NCI-H460 cells assessed as accumulation at G1 phase at 5 uM after 48 hrs by Rnase A/propidium iodide staining-based flow cytometry (reference value: 46.69%); assay type: functional
NCI-H460 [31] = experiment: Induction of apoptosis in human NCI-H460 cells assessed as late apoptotic cells at 10 uM after 24 hrs by Annexin V/propidium iodide staining-based flow cytometry (reference value: 14.1%); assay type: functional
NCI-H460 [32] = experiment: Cell cycle arrest in human NCI-H460 cells assessed as accumulation at G2 phase at 10 uM after 48 hrs by Rnase A/propidium iodide staining-based flow cytometry (reference value: 33.9%); assay type: functional
NCI-H460 [33] = experiment: Cell cycle arrest in human NCI-H460 cells assessed as accumulation at G1 phase at 10 uM after 48 hrs by Rnase A/propidium iodide staining-based flow cytometry (reference value: 46.69%); assay type: functional

| SMILES | Activity (NCI-H460 [1]) | Activity (NCI-H460 [2]) | Activity (NCI-H460 [3]) | IC50 (HUVEC) | Activity (NCI-H460 [4]) | Activity (NCI-H460 [5]) | IC50 (CNE) | Activity (NCI-H460 [6]) | Activity (NCI-H460 [7]) | Activity (NCI-H460 [8]) | Activity (NCI-H460 [9]) | Activity (NCI-H460 [10]) | IC50 (NCI-H460 [11]) | IC50 (MGC-803) | Activity (NCI-H460 [12]) | Activity (NCI-H460 [13]) | Activity (NCI-H460 [14]) | Activity (NCI-H460 [15]) | IC50 (KB) | Activity (NCI-H460 [16]) | further results |
| --- | --- | --- | --- | --- | --- | --- | --- | --- | --- | --- | --- | --- | --- | --- | --- | --- | --- | --- | --- | --- | --- |
| CCOP(=O)(OCC)C(NC(=O)C(C)Oc1ccc2c(c1O)C(=O)c1ccccc1C2=O)c1cccc2ccccc12 (stereo unspecified) | 25.78% | 34.32% | tde | 40.5 µM | tde | 54.9% | > 50 µM | Dose-dependent effect | Active | Dose-dependent effect | 32.56% | Dose-dependent effect | 6.83 µM | 3.77 µM | 36.6% | tde | Dose-dependent effect | 17.06% | 1.02 µM | Dose-dependent effect | Activity (NCI-H460 [17]): Active; Activity (NCI-H460 [18]): Active; Activity (NCI-H460 [19]): tde; Activity (NCI-H460 [20]): 1.11%; Activity (NCI-H460 [21]): 1.1%; Activity (NCI-H460 [22]): 2.4%; Activity (NCI-H460 [23]): Dose-dependent effect; Activity (NCI-H460 [24]): 35.7%; Activity (NCI-H460 [25]): 21.34%; Activity (NCI-H460 [26]): 16.3%; Activity (NCI-H460 [27]): Dose-dependent effect; Activity (NCI-H460 [28]): 19.9%; Activity (NCI-H460 [29]): 68.09%; Activity (NCI-H460 [30]): 57.2%; Activity (NCI-H460 [31]): 18.6%; Activity (NCI-H460 [32]): 24.74%; Activity (NCI-H460 [33]): 59.86% |
| CCOP(=O)(OCC)C(NC(=O)C(C)Oc1ccc2c(c1O)C(=O)c1ccccc1C2=O)c1ccccc1OC (stereo unspecified) | 34.41% | 27.54% | tde | > 50 µM | tde | 50.2% | 34.2 µM | Dose-dependent effect | Active | Dose-dependent effect | 21.99% | Dose-dependent effect | 9.8 µM | 10.1 µM | 38.9% | tde | Dose-dependent effect | 11.81% | 0.88 µM | Dose-dependent effect | Activity (NCI-H460 [17]): Active; Activity (NCI-H460 [18]): Active; Activity (NCI-H460 [19]): tde; Activity (NCI-H460 [20]): 13.09%; Activity (NCI-H460 [21]): 8.4%; Activity (NCI-H460 [22]): 2.5%; Activity (NCI-H460 [23]): Dose-dependent effect; Activity (NCI-H460 [24]): 32.4%; Activity (NCI-H460 [25]): 23.09%; Activity (NCI-H460 [26]): 8.6%; Activity (NCI-H460 [27]): Dose-dependent effect; Activity (NCI-H460 [28]): 21.9%; Activity (NCI-H460 [29]): 68.16%; Activity (NCI-H460 [30]): 56.85%; Activity (NCI-H460 [31]): 17.8%; Activity (NCI-H460 [32]): 29.38%; Activity (NCI-H460 [33]): 60.79% |
| CCOP(=O)(OCC)C(NC(=O)C(C)Oc1ccc2c(c1O)C(=O)c1ccccc1C2=O)c1ccccc1F (stereo unspecified) | 23.14% | 29.57% | tde | 21 µM | tde | 56.4% | 30.2 µM | Dose-dependent effect | Active | Dose-dependent effect | 23.05% | Dose-dependent effect | 3.8 µM | 18.8 µM | 38.8% | tde | Dose-dependent effect | 11.25% | 0.7 µM | Dose-dependent effect | Activity (NCI-H460 [17]): Active; Activity (NCI-H460 [18]): Active; Activity (NCI-H460 [19]): tde; Activity (NCI-H460 [20]): 16.3%; Activity (NCI-H460 [21]): 0.8%; Activity (NCI-H460 [22]): 1.9%; Activity (NCI-H460 [23]): Dose-dependent effect; Activity (NCI-H460 [24]): 56.3%; Activity (NCI-H460 [25]): 20.06%; Activity (NCI-H460 [26]): 9.2%; Activity (NCI-H460 [27]): Dose-dependent effect; Activity (NCI-H460 [28]): 30.3%; Activity (NCI-H460 [29]): 65.52%; Activity (NCI-H460 [30]): 64.52%; Activity (NCI-H460 [31]): 6.8%; Activity (NCI-H460 [32]): 20.77%; Activity (NCI-H460 [33]): 65.81% |
